Reference: ChEMBL document CHEMBL1153178, “Design and synthesis of a hybrid potentiator-corrector agonist of the cystic fibrosis mutant protein DeltaF508-CFTR” (Bioorg Med Chem Lett, 2010)
Active and inactive are the calls of the source. The calls are words filed in the database; no cut-off is given here.

Test system: Cystic fibrosis transmembrane conductance regulator (Homo sapiens), P13569 [F508del]
Assay: Agonist activity at human CFTR deltaF508 mutant expressed in rat FRT cells assessed as forskolin-stimulated […] by patch-clamp method
Type: functional, cell-based

Sequence of Cystic fibrosis transmembrane conductance regulator (Homo sapiens), P13569 [F508del] (P13569 as listed by the source): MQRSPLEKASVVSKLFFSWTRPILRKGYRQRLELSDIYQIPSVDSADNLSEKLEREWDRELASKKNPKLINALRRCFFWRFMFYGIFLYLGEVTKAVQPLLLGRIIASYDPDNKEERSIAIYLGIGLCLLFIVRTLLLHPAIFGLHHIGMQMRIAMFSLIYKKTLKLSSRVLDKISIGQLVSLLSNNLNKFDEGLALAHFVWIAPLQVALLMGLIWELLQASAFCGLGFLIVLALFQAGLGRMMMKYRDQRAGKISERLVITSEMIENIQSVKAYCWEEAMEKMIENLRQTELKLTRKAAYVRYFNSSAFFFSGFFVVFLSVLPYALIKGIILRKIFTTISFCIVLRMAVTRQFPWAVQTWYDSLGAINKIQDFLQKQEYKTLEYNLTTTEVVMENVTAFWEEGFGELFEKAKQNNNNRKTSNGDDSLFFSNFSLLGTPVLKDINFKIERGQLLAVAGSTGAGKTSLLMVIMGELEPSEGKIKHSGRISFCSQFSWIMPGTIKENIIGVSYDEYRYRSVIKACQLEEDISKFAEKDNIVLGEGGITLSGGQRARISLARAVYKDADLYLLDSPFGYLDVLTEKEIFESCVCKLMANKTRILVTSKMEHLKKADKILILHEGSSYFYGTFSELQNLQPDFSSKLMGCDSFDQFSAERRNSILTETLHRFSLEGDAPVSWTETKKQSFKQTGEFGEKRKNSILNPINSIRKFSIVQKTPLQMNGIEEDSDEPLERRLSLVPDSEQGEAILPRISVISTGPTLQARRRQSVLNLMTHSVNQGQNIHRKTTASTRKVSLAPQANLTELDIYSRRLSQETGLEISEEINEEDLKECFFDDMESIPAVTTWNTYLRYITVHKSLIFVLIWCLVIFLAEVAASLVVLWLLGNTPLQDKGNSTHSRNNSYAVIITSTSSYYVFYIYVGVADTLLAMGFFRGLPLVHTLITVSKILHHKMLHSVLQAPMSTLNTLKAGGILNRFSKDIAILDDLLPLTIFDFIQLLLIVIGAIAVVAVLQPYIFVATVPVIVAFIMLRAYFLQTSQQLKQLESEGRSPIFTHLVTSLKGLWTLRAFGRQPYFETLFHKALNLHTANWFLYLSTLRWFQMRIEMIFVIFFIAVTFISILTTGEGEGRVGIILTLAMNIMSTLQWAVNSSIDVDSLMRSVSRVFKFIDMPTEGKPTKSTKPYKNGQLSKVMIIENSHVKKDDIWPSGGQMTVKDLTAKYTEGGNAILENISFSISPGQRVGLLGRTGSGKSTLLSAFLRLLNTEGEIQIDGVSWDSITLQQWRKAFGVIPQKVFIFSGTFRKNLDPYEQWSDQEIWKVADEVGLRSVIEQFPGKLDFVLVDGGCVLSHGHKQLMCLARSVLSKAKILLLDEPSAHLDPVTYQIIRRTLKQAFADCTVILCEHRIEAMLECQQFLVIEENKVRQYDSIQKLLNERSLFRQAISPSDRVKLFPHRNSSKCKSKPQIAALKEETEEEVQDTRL

Activity	SMILES
inactive	Cc1nc(NC(=O)c2ccccc2)sc1-c1csc(Nc2cc(Cl)ccc2OCCOCCOCC(=O)OCc2ccc(NC(=O)[C@H](c3ccccc3)N(C)C(=O)Cc3c[nH]c4ccccc34)cc2)n1
Active	CN(C(=O)Cc1c[nH]c2ccccc12)[C@H](C(=O)Nc1ccc(CO)cc1)c1ccccc1
Active	Cc1nc(NC(=O)c2ccccc2)sc1-c1csc(Nc2cc(Cl)ccc2OCCOCCOCC(=O)O)n1
